Source: US12616674B2, “Anti-fibrotic NEU3 inhibitor compounds and methods of use” (The Texas A&M University System, priority 2019, dated 2026)
Where two headings read alike, the source gives them in different places.

Key:
[1] = tested on: NEU3-induced IL-6 production by human PBMC; experiment: NEU3-induced extracellular IL-6 accumulation by human PBMC (IL-6 concentration assay); type: cell-based; settings: NEU3, serum-free medium, 48 hours
Procedure: Human peripheral blood was collected from healthy volunteers who gave written consent and with specific approval from the Texas A&M University human subjects review board. Peripheral blood mononuclear cells (PBMC) were isolated from the blood using Ficoll-Paque density gradient centrifugation (95021-205, GE Healthcare, Cincinnati, OH) following the manufacture's protocol. PBMC were cultured at […] in 96-well flat bottom tissue culture plates (type 62406-081; […] Louis, MO)) in a final volume of 200 μl per well. […] The sialidases were diluted in 100 μl of the same medium the cells were in, and added to 100 μl of cells at 1×10^5 cells/ml to make the total volume in a well 200 μl with 1×10^4 cells/well. The cells were then incubated at 37° C. in a humidified incubator with 5% CO2. The culture supernatants were collected after two or five days and assayed using an IL-6 ELISA kit (430501, Biolegend, San Diego, CA) following the manufacturer's protocol, reading absorbance with a SynergyMX plate reader (BioTek, Winooski, VT). Statistics were analyzed using Prism software (Graphpad, La Jolla, CA). At least three different donors were used for each assay. […] IL-6 in the culture supernatant was then assayed as described above. At least three different donors were used for each assay.

[2] = target: T1, recombinant human sialidase NEU3 (Homo sapiens, UniProt Q9UQ49); experiment: NEU3-catalyzed L-TGF-β1 activation (TGF-β1 release/concentration assay, active TGF-β1 ELISA); type: biochemical; settings: recombinant human NEU3, L-TGF-β1, PBS pH 6.9, 2 hours 37° C.
T1 construct: purchased Origene TP316537
T1 sequence (Q9UQ49 1-428): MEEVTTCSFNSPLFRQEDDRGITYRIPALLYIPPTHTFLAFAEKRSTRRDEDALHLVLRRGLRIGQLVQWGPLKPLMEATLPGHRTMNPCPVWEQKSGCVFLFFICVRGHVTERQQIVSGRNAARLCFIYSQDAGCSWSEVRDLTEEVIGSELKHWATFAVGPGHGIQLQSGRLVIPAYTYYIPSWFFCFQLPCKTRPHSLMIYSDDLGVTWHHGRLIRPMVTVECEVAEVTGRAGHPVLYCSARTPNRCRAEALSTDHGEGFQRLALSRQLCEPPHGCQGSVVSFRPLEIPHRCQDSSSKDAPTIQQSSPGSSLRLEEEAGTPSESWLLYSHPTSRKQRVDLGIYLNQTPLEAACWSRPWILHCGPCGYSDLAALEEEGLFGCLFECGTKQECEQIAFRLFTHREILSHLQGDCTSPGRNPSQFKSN
Procedure: To determine if NEU3 can cause latent transforming growth factor-β1 (L-TGF-β1) to release active TGF-β1, 200 ng/ml recombinant human L-TGF-β1 (299-LT/CF, R&D Systems) was incubated with varying concentrations of recombinant human NEU3 (TP316537, Origene) in a total volume of 100 μl of PBS pH 6.9 in a 96-well microplate (651261, Greiner Bio-one, Monroe, NC). The microplates were covered with aluminum foil and incubated at 37° C. for 2 hours. Following incubation, the reaction mixtures were assayed using a TGF-β1 ELISA kit (DY240, R&D Systems) following the manufacturer's protocol with the exception that the reaction mixtures were not processed for acid treatment, so as to measure only active TGF-β1 and not total TGF-β1. The absorbance was read with a SynergyMX plate reader (BioTek, Winooski, VT).
To determine the ability of compounds 1-31 to inhibit human recombinant NEU3 in-vitro, compounds were dissolved in 5 ml water to 20 mM in 15 ml tubes (89039-664, VWR, Radnor, PA), with the exception that 4-hydroxypyridine-2-carboxylic acid, nicotinic acid, and 4-aminopicolinic acid were dissolved in 50 μl DMSO to 2 M, and this was then added to 4.95 ml of water to make a 20 mM stock, and O-(tetrahydro-2H-pyran-2yl) hydroxylamine and salicylic acid were dissolved in 50 μl methanol to 2 M, and this was then added to 4.95 ml of water to make a 20 mM stock. All stocks were stored at 4° C. and used within 2 weeks of preparation. A 10-fold dilution series of the compounds starting at 2 mM were made in PBS pH 6.9 in 1.7 ml clear microtubes (22-281, Genesee Scientific). 100 μl of diluted compound was added to the well of a 96 well plate and then 50 μl of 400 ng/ml recombinant human sialidase NEU3 (TP316537, Origene) in PBS pH 6.9 was added to each well (50 μl PBS pH 6.9 for the control), and the plate was incubated for 30 minutes at 37° C. 50 μl of 800 ng/ml L-TGF-β1 (299-LT/CF, R&D Systems) in PBS pH 6.9 was then added to the well. The plate was covered with aluminum foil and incubated for 2 hours at 37° C., and released active TGF-β1 was assayed as described above.

[3] = read-out: IC50, inhibits human NEU3 in the TGF-β1 concentration (release) assay
[4] = read-out: IC50, inhibits human NEU3 in the TGF-β1 concentration assay

Row | SMILES | IC50 [2, 3] | IC50 [2, 4] | IC50 [1]
1 | O=C(O)c1cc(O)ccn1 [Compound 2, 4-hydroxypyridine-2-carboxylic acid] |  |  | > 300000 nM
2 | Nc1ccncc1C(=O)O [Compound 23, 4-aminonicotinic acid] |  | 5 nM | 10000 nM
3 | O=C(O)c1cc(C(F)(F)F)ccn1 [Compound 21, 4-(trifluoromethyl) picolinic acid] |  |  | 0.08 nM
4 | O=C(O)C1CCCCCN1 (stereo not shown) [Compound 31, azepane-2-carboxylic acid] |  | 2.4 nM | 35 nM
5 | CCOC(=O)C1=C[C@@H](OC(CC)CC)[C@H](NC(C)=O)[C@@H](N)C1 [Compound 28, oseltamivir, reference compound] |  | 570 nM | 47000 nM
6 | O=C(O)c1ccccc1O [Compound 15, salicylic acid] | 1800 nM |  | 
7 | Nc1ccnc(C(=O)O)c1 [Compound 7, 4-amino picolinic acid] |  | 4 nM | > 100000 nM
8 | Cc1cccc(C(=O)O)n1 [Compound 27, 6-methyl-2-pyridinecarboxylic acid] |  | < 0.01 nM | 4.1 nM
9 | O=C(O)c1cccc(CO)n1 [Compound 17, 6-(hydroxymethyl) picolinic acid] |  | 0.05 nM | 38 nM
10 | NC(=O)c1ccccn1 [Compound 10, picolinamide] |  | 22 nM | > 100000 nM
11 | O=C(O)c1cc(=O)cc[nH]1 [Compound 24, 4-oxo-1,4-dihydropyridine-2-carboxylic acid] |  |  | 8500 nM
12 | Nc1ccc(C(=O)O)nc1 [Compound 18, 5-aminopyridine-2-carboxylic acid] |  | 40 nM | 140 nM

The next lines start with results.

Row | IC50 [2, 3] | IC50 [2, 4] | SMILES | IC50 [1]
13 | 500 nM |  | CN1CCCCC1C(=O)O (stereo not shown) [Compound 20, 1-methyl-2-piperidine carboxylic acid] | 30 nM
14 | 120000 nM |  | O=C(O)C1=CCCCN1 [Compound 12, sodium 1,4,5,6-tetrahydropyridine-2-carboxylate] | 
15 |  | < 0.01 nM | O=C(O)c1ccccn1 [Compound 4, picolinic acid] | > 100000 nM
16 |  | 0.49 nM | O=C(O)[C@@H]1CCCCN1 [Compound 13, L-pipecolinic acid] | 7900 nM
17 |  | 43 nM | O=C(O)c1ccc([N+](=O)[O-])cn1 [Compound 8, 5-nitro picolinic acid] | 79 nM
18 | 130 nM |  | Cc1ccnc(C(=O)O)c1 [Compound 22, 4-methylpicolinic acid] | 4700 nM
19 |  | 2 nM | NC1CCNC(C(=O)O)C1 (stereo not shown) [Compound 25, 2-piperidinecarboxylic acid, 4-amino] | 0.13 nM
20 |  | 11 nM | CC(=O)Nc1ccc(C(=O)O)nc1 [Compound 3, 5-acetamidopyridine-2-carboxylic acid] | 6200 nM
21 | 164000 nM |  | O=C(O)c1ccc[nH]1 [Compound 30, pyrrole-2-carboxylic acid] | 9500 nM
22 |  | 0.011 nM | O=C(O)c1cccnc1 [Compound 14, nicotinic acid] | 1500 nM
23 | 2600 nM |  | NOC1CCCCO1 (stereo not shown) [Compound 16, O-(tetrahydro-2H-pyran-2-yl)-hydroxylamine] | 
24 |  | 63 nM | O=C(O)[C@H]1CCCN1 [Compound 29, D-proline] | 4200 nM
25 |  | 3.2 nM | COc1ccnc(C(=O)O)c1 [Compound 9, 4-methoxy picolinic acid] | > 100000 nM
26 |  | 40 nM | O=[N+]([O-])c1ccccn1 [Compound 19, 2-Nitropyridine] | 20 nM
